The values below come from patent publication US7960419B2, “Substituted carboxamides” (Eli Lilly and Company, priority 2006, dated 2011).

Where only a bound is given, the exact number is not on record here.

In series [1] the test system is fasted male Harlan Sprague Dawley rats. Kind of series: Formalin model. The class given is in vivo, rat. Here is the method:
(§1) These well known pain models conveniently may be carried out as summarized below. […] All data are analyzed by ANOVA and Dunnett's t-test using JMPv4.1 (SAS Institute Inc., Cary, N.C.) statistical software unless otherwise indicated. Data are expressed as means±SEM. Specific conditions for each model are briefly described.
Formalin model: Drug is administered prior to formalin (50 μl, 5%), injected s.c. into the dorso-lateral surface of the right hindpaw. Paw-licking behavior is measured in an automated assay, as number of events, from 0-50 minutes after formalin. Data are expressed as paw-licking pain behavior events in early phase (0-5 minutes) or late phase (15-40 minutes). […] L5/L6 Spinal Nerve ligation model: Tight ligation is performed on L5 and L6 spinal nerves (one side only). Two weeks later, mechanical allodynia behavior is measured using von Frey filaments using incremental bending forces (0.5-15 g) at various time points after drug administration. Carrageenan model: Carrageenan (100 μl, 3%) is injected into the plantar surface of the right paw, and drug is administered two hours after carrageenan. Thermal hyperalgesia is measured using a radiant heat source, with a 30 second cut off to prevent tissue damage. Paw withdrawal latency in seconds is measured as the difference between the inflammed paw and the non-inflammed left paw. Capsaicin model: Drug is administered prior to capsaicin. Capsaicin (25 μl, 30 μg) in olive oil is injected into the plantar surface of the right paw. Mechanical allodynia behavior is measured using von Frey filaments using incremental bending forces (0.5-15 g) at 15 minutes and 1 hour after capsaicin. Tail Flick model: Radiant heat source at base of tail with 10 sec cut off is used to elicit tail flick response at various time points after drug administration. Rotorod test: Male Sprague Dawley rats (180-230 g, Harlan labs, Indianapolis) are used for the rotorod test. […] Data are analyzed by ANOVA and Dunnett's t-test using JMPv4.1 (SAS Institute Inc., Cary, N.C.) statistical software. Data are expressed as means±SEM.

The test system is the same in series [2]. Description: Capsaicin model. The class given is in vivo, rat. The following applies: fasted male HSD rats, at doses with no deficit in the rotorod test. Here is the method: as §1
(§2) Formalin model: Drug is administered prior to formalin (50 μl, 5%), injected s.c. into the dorso-lateral surface of the right hindpaw. Paw-licking behavior is measured in an automated assay, as number of events, from 0-50 minutes after formalin. Data are expressed as paw-licking pain behavior events in early phase (0-5 minutes) or late phase (15-40 minutes). […] Two weeks later, mechanical allodynia behavior is measured using von Frey filaments using incremental bending forces (0.5-15 g) at various time points after drug administration. […] Thermal hyperalgesia is measured using a radiant heat source, with a 30 second cut off to prevent tissue damage. Paw withdrawal latency in seconds is measured as the difference between the inflammed paw and the non-inflammed left paw. […] Mechanical allodynia behavior is measured using von Frey filaments using incremental bending forces (0.5-15 g) at 15 minutes and 1 hour after capsaicin. […] Data are analyzed by ANOVA and Dunnett's t-test using JMPv4.1 (SAS Institute Inc., Cary, N.C.) statistical software. Data are expressed as means±SEM.

The test system of a further series is Male Sprague Dawley rats. Kind of series: Rotorod test. The class given is in vivo, rat. The following applies: at the doses active in the pain models. The protocol:
as §1, §2

Series [3] relates to fasted male Harlan Sprague Dawley rats. Description: Tail Flick model. The class given is in vivo, rat. The following applies: fasted male HSD rats, at doses with no deficit in the rotorod test. Here is the method:
as §1, §2

For the next series, the system named is non-fasted male HSD rats. Description: L5/L6 Spinal Nerve ligation model. The class given is in vivo, rat. The following applies: non-fasted male HSD rats (300-350 g), at doses with no deficit in the rotorod test. Here is the method: as §1, §2
Series [4] has as its system fasted male Harlan Sprague Dawley rats. Description: Carrageenan model. The class given is in vivo, rat. The following applies: fasted male HSD rats, at doses with no deficit in the rotorod test. The protocol:
as §1, §2

Series [5] addresses T1, human recombinant mGlu1a receptor (Homo sapiens, UniProt Q13255).
T1 construct: expressed in transfected cells
Description: glutamate induced calcium flux (FLIPR, Fluo-3) in AV-12 cells expressing mGlu1a. The following applies: inhibition of peak fluorescence response to glutamate at EC90% (10 μM). It counts as cell-based. The protocol: The relative potency and selectivity of compounds of the instant invention for mGlu1 receptors is evaluated using stable clonal cell lines expressing recombinant mGlu1, 2, 3, 4. 5 or 8 receptors transfected into AV12 cell lines containing the rat EAAT1 glutamate transporter (RGT) cells.
For example, in more detail, compounds of the present invention are evaluated for effects on glutamate induced calcium flux responses using an AV-12 cell line expressing human recombinant mGlu1a receptor protein (see Kingston et al. Neuropharmacology. 37(1):1-12, 1998). mGlu1 receptor mediated responses are determined by changes in intracellular calcium concentrations measured by a fluorescent calcium sensitive dye Fluo-3. […] Unincorporated extracellular dye is removed from the wells by washing with buffer solution, and plates are then transferred to a 96-channel fluorimetric imaging plate reader (FLIPR-Molecular Devices Corporation, La Jolla, Calif., USA). Baseline fluorescence readings are undertaken for 10 sec prior to addition of test compounds by an automatic pipetting device integral to the FLIPR instrument. Following a 20 sec delay, glutamate is then added to the wells at an EC90% concentration (10 μM); and changes in fluorescence are monitored over 60 sec. […] IC50 values are calculated using a 4 parameter logistic curve fitting program (GraphPad Prism™ V4 or Activity Base™ V5.3 software).

For series [6] the following is noted: in vivo; cited from earlier work.
For series [7] the following is noted: in vivo; cited from earlier work. The source holds these as a separate data set.

T1 sequence (Q13255 19-1194): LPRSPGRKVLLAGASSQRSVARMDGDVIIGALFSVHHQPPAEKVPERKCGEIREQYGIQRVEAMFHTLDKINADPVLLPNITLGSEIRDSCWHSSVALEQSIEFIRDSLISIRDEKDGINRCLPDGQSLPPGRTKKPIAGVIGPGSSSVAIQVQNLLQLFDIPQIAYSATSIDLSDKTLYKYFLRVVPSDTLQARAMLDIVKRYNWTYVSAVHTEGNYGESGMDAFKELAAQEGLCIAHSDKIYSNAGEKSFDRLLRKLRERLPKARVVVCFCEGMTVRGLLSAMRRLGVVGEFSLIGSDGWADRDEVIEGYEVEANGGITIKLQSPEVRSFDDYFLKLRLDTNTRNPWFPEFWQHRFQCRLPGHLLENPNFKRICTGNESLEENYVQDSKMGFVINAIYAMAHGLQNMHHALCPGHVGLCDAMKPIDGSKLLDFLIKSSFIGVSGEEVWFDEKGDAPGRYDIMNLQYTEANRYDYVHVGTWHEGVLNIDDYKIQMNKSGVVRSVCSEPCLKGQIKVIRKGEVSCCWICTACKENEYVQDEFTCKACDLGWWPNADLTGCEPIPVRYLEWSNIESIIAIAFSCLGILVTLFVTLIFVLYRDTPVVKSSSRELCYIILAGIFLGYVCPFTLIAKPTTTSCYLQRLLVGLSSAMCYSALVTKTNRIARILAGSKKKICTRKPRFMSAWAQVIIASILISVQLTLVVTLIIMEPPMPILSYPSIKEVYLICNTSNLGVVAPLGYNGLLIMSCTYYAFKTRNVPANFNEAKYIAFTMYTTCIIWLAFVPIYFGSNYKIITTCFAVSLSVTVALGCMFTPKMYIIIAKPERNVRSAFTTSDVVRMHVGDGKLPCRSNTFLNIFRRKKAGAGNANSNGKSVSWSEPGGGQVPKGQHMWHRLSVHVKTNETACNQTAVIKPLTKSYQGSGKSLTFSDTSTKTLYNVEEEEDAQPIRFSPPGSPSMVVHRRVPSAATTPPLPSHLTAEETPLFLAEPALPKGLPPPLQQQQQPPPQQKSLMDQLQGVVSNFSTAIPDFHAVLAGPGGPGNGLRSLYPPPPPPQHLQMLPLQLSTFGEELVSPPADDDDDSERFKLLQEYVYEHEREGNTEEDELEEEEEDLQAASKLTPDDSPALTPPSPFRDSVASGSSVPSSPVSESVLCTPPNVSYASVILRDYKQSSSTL

Consider `COc1ccc(-c2nsc(NC(=O)[C@@H]3C[C@H]3C)c2C)cc1` [Example 1, (R,R)—N-[3-(4-methoxyphenyl)-4-methylisothiazol-5-yl]-2-methylcyclopropanecarboxamide], for which the “activity in the formalin model” value in series [1] (fasted male HSD rats, at doses with no deficit in the rotorod test) is reported as “dose-dependent activity”. Also, the “late phase pain behavior (paw-licking, 15-40 minutes)” value in series [1] (fasted rats, 3 to 60 mg/kg, p.o., 1 hour prior to formalin) was “dose dependent attenuation”. The “activity in the capsaicin model” value in series [2] is on record as “dose-dependent activity”. For the same compound, the “performance in the rotorod test” value in the series on Male Sprague Dawley rats is recorded as “no deficit in performance”. The “activity in the tail flick model” value in series [3] is “dose-dependent activity”. The “activity in the L5/L6 spinal nerve ligation model” value with non-fasted male HSD rats was “dose-dependent activity”. For the same compound, the “activity in the carrageenan model” value in series [4] is “dose-dependent activity”. In addition, the IC50 in [5] was < 20 nM.

As to `Cc1c(-c2ccc(Cl)cc2)nsc1NC(=O)[C@@H]1C[C@H]1C` [Example 6, (R,R)—N-[3-(4-chlorophenyl)-4-methylisothiazol-5-yl]-2-methylcyclopropanecarboxamide], the “late phase pain behavior (paw-licking, 15-40 minutes)” value in series [1] (1 to 30 mg/kg) is “dose dependent attenuation”. Further, in series [5], the IC50 was < 20 nM.

For the compound `COc1ccc(Nc2ncnc3ccc(OC)cc23)cc1` [LY456236], the “nocifensive responses in the formalin test” value in series [6] is reported as “can reduce nocifensive responses”. Also, the “mechanical allodynia in the L5/L6 spinal nerve ligation model” value in [7] is “can reduce”.
